Source: patent US11040981B2, “Pyrrolotriazine compounds and methods of inhibiting TAM kinases” (Syros Pharmaceuticals, Inc., priority 2017, dated 2021)

Key:
AXL = biological target: T1, AXL (Homo sapiens, UniProt P30530); assay: TR-FRET kinase activity assay, AXL; type: biochemical; details: ATP at Km, 60 minutes
T1 sequence (P30530 26-894): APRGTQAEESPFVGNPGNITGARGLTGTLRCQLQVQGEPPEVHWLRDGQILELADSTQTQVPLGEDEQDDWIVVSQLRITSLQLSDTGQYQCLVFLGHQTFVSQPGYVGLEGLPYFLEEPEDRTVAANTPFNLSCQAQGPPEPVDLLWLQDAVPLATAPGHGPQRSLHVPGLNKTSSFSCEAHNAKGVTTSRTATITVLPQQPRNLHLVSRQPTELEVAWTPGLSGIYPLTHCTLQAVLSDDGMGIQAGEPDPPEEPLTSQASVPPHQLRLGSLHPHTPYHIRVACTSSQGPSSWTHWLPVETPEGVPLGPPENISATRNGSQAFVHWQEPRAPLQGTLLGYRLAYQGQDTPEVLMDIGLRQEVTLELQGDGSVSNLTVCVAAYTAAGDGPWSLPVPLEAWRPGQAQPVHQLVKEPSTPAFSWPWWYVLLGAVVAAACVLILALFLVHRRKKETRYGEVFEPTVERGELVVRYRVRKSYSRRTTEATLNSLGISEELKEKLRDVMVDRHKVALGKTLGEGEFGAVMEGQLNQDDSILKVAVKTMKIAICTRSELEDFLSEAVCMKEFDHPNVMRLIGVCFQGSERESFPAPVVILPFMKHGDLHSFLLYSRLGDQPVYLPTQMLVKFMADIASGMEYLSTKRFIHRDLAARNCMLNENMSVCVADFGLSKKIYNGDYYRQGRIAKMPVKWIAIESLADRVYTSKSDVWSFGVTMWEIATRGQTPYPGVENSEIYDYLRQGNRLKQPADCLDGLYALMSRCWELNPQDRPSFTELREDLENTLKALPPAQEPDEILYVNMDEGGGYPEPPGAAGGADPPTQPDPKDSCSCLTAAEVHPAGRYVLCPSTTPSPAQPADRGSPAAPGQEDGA
Method in brief: (§1)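 IC50 reflects the drop in TR-FRET between Eu anti-phosphotyrosine antibody and labelled peptide after a 60-minute room-temperature reaction. Buffer was 50 mM HEPES pH 7.5 with 10 mM MgCl2, 1 mM EGTA, 0.01% Brij 35 and 1 mM DTT, with ATP at Km per enzyme and EDTA quench.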

TYRO3 = biological target: T2, TYRO3 (Homo sapiens, UniProt Q06418); assay: TR-FRET kinase activity assay, TYRO3; type: biochemical; details: ATP at Km, 60 minutes
T2 sequence (Q06418 41-890): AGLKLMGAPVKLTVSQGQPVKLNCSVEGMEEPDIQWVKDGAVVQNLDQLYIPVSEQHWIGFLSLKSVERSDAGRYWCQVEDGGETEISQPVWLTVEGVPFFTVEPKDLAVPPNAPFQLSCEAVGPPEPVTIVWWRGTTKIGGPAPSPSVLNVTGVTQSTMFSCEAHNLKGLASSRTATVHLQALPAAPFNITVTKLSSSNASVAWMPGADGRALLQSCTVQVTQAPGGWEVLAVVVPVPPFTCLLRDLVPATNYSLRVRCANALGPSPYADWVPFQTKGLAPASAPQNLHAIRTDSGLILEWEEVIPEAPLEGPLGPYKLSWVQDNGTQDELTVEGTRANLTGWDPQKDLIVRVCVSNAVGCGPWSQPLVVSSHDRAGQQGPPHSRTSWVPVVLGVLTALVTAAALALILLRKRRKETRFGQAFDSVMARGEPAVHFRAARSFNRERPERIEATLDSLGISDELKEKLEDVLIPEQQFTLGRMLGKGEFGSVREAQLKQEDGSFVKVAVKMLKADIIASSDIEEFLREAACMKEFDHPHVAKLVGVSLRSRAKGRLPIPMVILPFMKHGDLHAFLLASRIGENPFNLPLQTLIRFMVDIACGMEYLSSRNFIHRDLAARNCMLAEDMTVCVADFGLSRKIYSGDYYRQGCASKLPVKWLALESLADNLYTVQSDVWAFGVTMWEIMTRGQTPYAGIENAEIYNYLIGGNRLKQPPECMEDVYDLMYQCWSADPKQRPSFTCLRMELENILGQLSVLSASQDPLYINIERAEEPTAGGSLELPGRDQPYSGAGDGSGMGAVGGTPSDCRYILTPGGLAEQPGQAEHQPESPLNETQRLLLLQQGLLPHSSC
Method in brief: as §1

SMILES	IC50 (AXL) [nM]	IC50 (TYRO3) [nM]
COCC(C)Nc1ncc2c(-c3ccc4ncoc4c3)cc(C3CCC(O)CC3)n2n1 (centres unmarked) [Compound 552]	≤ 100	≤ 100
COCC(C)Nc1ncc2c(-c3ccc4[nH]cnc4c3)cc(C3CCC(O)CC3)n2n1 (centres unmarked) [Compound 553]	≤ 100	≤ 100
COC[C@H](C)Nc1ncc2c(-c3cnn(C(C)(C)C(=O)N4CC[C@H](O)C4)c3)cc([C@H]3CC[C@H](O)CC3)n2n1 [Compound 554]	≤ 100	≤ 100
COC[C@H](C)Nc1ncc2c(-c3cnn(C(C)(C)C(=O)N4CC[C@@H](O)C4)c3)cc([C@H]3CC[C@H](O)CC3)n2n1 [Compound 555]	≤ 100	≤ 100
COC[C@H](C)Nc1ncc2c(-c3cnn(C(C)(C)C(=O)N4CCOC(C(C)(C)O)C4)c3)cc([C@H]3CC[C@H](O)CC3)n2n1 (some centres unmarked) [Compound 556]	≤ 100	≤ 100
CC(C)(O)C1CN(c2cc(-c3cc([C@H]4CC[C@H](O)CC4)n4nc(NCCOC(F)F)ncc34)ccn2)CCO1 (some centres unmarked) [Compound 557]	≤ 100	≤ 100
COC[C@H](C)Nc1ncc2c(-c3ccnc(N4CCO[C@H](C(C)(C)O)C4)c3)cc([C@H]3CC[C@H](O)CC3)n2n1 [Compound 558]	≤ 100	≤ 100
COCC(C)Nc1ncc2c(-c3ccnc(N4CCOC(C(C)(C)O)C4)c3)cc(C3CCC(O)CC3)n2n1 (centres unmarked) [Compound 559]	≤ 100	≤ 100
COC[C@H](C)Nc1ncc2c(-c3cnn(C(C)(C)C(=O)N4CCOCC4)c3)cc([C@H]3CC[C@](C)(O)CC3)n2n1 [Compound 560]	≤ 100	≤ 100
COC[C@H](C)Nc1ncc2c(-c3cnn(C(C)(C)C(=O)N4CCOCC4)c3)cc([C@H]3CC[C@@](C)(O)CC3)n2n1 [Compound 561]	≤ 100	≤ 100
COCC(C)Nc1ncc2c(-c3cccc(N4CCOCC4)c3)cc(C3CCC(O)CC3)n2n1 (centres unmarked) [Compound 562]	≤ 100	≤ 100
COC[C@H](C)Nc1ncc2c(-c3cnn(C(C)(C)c4nnc(C5CC5)o4)c3)cc([C@H]3CC[C@H](O)CC3)n2n1 [Compound 563]	≤ 100	≤ 100
COC[C@H](C)Nc1ncc2c(-c3cnn(C4COC4)c3)cc([C@H]3CC[C@@H](O)CC3)n2n1 [Compound 564]	≤ 100	≤ 100

Further lines, results first:

IC50 (AXL) [nM]	IC50 (TYRO3) [nM]	SMILES
≤ 100	≤ 100	COC[C@H](C)Nc1ncc2c(-c3ccc(CN4CCN(C)CC4)nc3)cc([C@H]3CC[C@H](O)CC3)n2n1 [Compound 565]
≤ 100	≤ 100	COC[C@H](C)Nc1ncc2c(-c3ccnc(C4COC4)c3)cc([C@H]3CC[C@H](O)CC3)n2n1 [Compound 566]
≤ 100	≤ 100	CCS(=O)(=O)N1CC(CC#N)(n2cc(-c3cc([C@H]4CC[C@H](O)CC4)n4nc(N[C@@H](C)COC)ncc34)cn2)C1 [Compound 567]
≤ 100	≤ 100	CC[C@]1(O)CC[C@H](c2cc(-c3ccnc(N4CCOCC4)c3)c3cnc(N[C@@H](C)COC)nn32)CC1 [Compound 568]
100 to 1000	≤ 100	COC[C@H](C)Nc1ncc2c(-c3cnn(C4COC4)c3)cc([C@@H]3CC[C@@H](O)C(C)(C)C3)n2n1 [Compound 570]
100 to 1000	≤ 100	COC[C@H](C)Nc1ncc2c(-c3cnn(C4COC4)c3)cc([C@@H]3CC[C@H](O)C(C)(C)C3)n2n1 [Compound 571]
100 to 1000	≤ 100	COC[C@H](C)Nc1ncc2c(-c3cncc([S@](C)(=N)=O)c3)cc([C@H]3CC[C@@H](O)CC3)n2n1 [Compound 572]
100 to 1000	≤ 100	COC[C@H](C)Nc1ncc2c(-c3cncc([S@@](C)(=N)=O)c3)cc([C@H]3CC[C@H](O)CC3)n2n1 [Compound 573]
100 to 1000	≤ 100	COC[C@H](C)Nc1ncc2c(-c3ccnc([S@@](C)(=N)=O)c3)cc([C@H]3CC[C@H](O)CC3)n2n1 [Compound 574]
